# Laboratory results taken from US20140193802A1, “IDENTIFICATION OF AN ALTERED THERAPEUTIC SUSCEPTIBILITY TO ANTI-HCMV COMPOUNDS AND OF A RESISTANCE AGAINST ANTI-HCMV COMPOUNDS” (priority 2012, published 2014).
# Like-named read-outs stand apart in the source and are kept apart here.
# How the values were obtained:
# Format in all cases: cell-based, human cytomegalovirus (HCMV)
# [1] = test system: RV-HG (wt-HCMV); experiment: HCMV fluorescence reduction assay (GFP-RA); conditions: Human betaherpesvirus 5
# Description: (§1) HCMV Fluorescence Reduction Assay (GFP-RA)
# (§2) The susceptibilities of recombinant HCMV laboratory strains expressing GFP were determined by a GFP-based fluorescence reduction assay. For standard assays, 1.5×10^4 NHDF cells/well were cultured in black 96-well plates (Greiner Bio-One, Germany) and infected with either HCMV-GFP (MOI, 0.1) or RV-HG (MOI, 0.2 to 0.5). After virus adsorption, the virus inoculum was replaced with 200 μl fresh medium. Thereafter, 100 μl medium containing the test compounds was added to wells of horizontal row G, followed by serial 3-fold dilutions up to row A. All drug concentrations were tested at least in duplicate. Wells of the horizontal row H served as the virus control. Plates were incubated at 37° C. for 7 days. The medium was replaced by 200 μl PBS, and GFP units (GFPU) were determined by a charge-coupled-device-camera-based fluorescence detector (FluoBox; Bayer Technology Services GmbH, Leverkusen, Germany), which captures 96 images simultaneously. Drug effects were calculated as a percentage of reduction in GFPU in the presence of each drug concentration compared to the GFPU determined in the absence of drug. EC50 and EC90 values (drug concentrations producing 50% and 90% reduction in GFPU) were calculated using nonlinear regression curve fit with a variable slope. GraphPad Prism 3.02 or 4.0 software (GraphPad Software Inc., La Jolla, Calif.) was used for all analyses.
# (§3) The HCMV AD169-derived bacterial artificial chromosome (BAC) pHG served as the backbone for the construction of the mutant viruses. The markerless introduction of point mutations into pHG was done using a two-step recombination protocol according to the en passant method. Briefly, a recombination fragment containing the I-SceI-AphAI cassette from plasmid pEPKan-S was obtained by PCR using primers containing ˜60 bp of homology to the intended integration site in ORF UL56 of BAC pHG and ˜20 bp specific for pEPKan-S. This fragment was electroporated into Escherichia coli GS1783 that harbored the pHG BAC. […] After successful kanamycin selection, all non-HCMV sequences were removed by an intrabacterial ISceI digest and a subsequent second Red recombination, resulting in the scarless repair of the mutated UL56 gene in the background of BAC pHG. The integrity of the generated BACs was confirmed by restriction enzyme digestion and sequencing. To reconstitute virus mutants, the recombinant BACs were transfected into permissive MRC5 cells. At least two independent virus clones per mutation were generated and evaluated.
# [2] = test system: RV-HG-UL56 mutants; experiment: GFP-RA, drug susceptibility profile of the virus mutants; conditions: fluorescence reduction assays; for BAY 38-4766 and BDCRB with the exception of the strain carrying UL56 R369M
# Description: as §1, §2
# as §3, with “The integrity of the generated BACs was confirmed by restriction enzyme digestion and sequencing.” left out
# [3] = test system: HCMV AD169 mutant rAIC246-9 (UL56 R369G); experiment: CPE-RA, letermovir-selected mutant; conditions: for EC50: Human betaherpesvirus 5, AD169, rAIC246-9 (UL56 R369G), CPE reduction assay, mean ± SD
# Description: (§4) HCMV Cytopathic Effect Reduction Assay (CPE-RA)
# (§5) CPE-RAs were performed basically as described elsewhere (HCMV replication assay). In brief, the addition of 2 μl test compound of 50, 5, 0.5, 0.05, 0.005, and 0.0005 mM DMSO stock solutions to 100 μl cell culture medium in duplicate was followed by serial 2-fold dilutions in 96-well microtiter plates. Each well was supplemented with 150 μl of either a suspension of 1×10^4 NHDF cells mixed with cell-free HCMV (multiplicity of infection (MOI), 0.03) or a suspension of 1×10^4 to 3×10^4 HCMV-infected and uninfected NHDF cells (MOI, 0.001 to 0.002). Non-infected and non-treated cells served as controls on each plate. Final compound concentrations ranged between 250 and 0.00005 μM. Plates were incubated for 6 to 7 days at 37° C. or until the virus control reached 100% CPE. A mixture containing 20% Giemsa stain (Merck) and 5% formalin solution (Merck) was added to the wells for fixation and staining. After extensive washing, plates were dried at 56° C. followed by visual evaluation using an overhead microscope (plaque magnifier; Tecnorama Zürich). Each assay was performed at least in triplicate, and standard deviations were calculated. The assay plate data were used to calculate the EC50 (CPE-RA), i.e., the concentration of drug that inhibits the CPE by 50% compared with an untreated virus-infected control.
# (§6) Drug-resistant HCMV AD169 mutants were selected by the single-step selection method or by serial passage of the virus in the presence of increasing concentration of Letermovir. Briefly, 5×10^3 AD169-infected NHDF cells/well (MOI, 0.03 PFU/cell) were seeded into the wells of 30 96-well microtiter plates. The infection was allowed to proceed under the exposure of 50 nM Letermovir (˜10×EC50) until a CPE developed in one or more of the compound-treated wells (indicative of resistant virus breakthrough). Non-infected and non-treated cells served as controls on each plate. Mutant virus amplification was accomplished after cultures achieved maximum CPE by the passage of cell-free supernatant virus in the presence of 50 nM Letermovir. The resultant Letermovir-resistant progeny virus mutants were plaque purified three times by limiting dilutions in the presence of Letermovir. The stability of resistance was tested by serially passaging plaque-purified viruses without selective pressure (8 to 10 times). The resistant phenotype of the mutants was confirmed by CPE reduction assays.
# [4] = test system: HCMV AD169 mutant rAIC246-1 (UL56 L241P); experiment: CPE-RA, letermovir-selected mutant; conditions: for EC50: Human betaherpesvirus 5, AD169
# Description: as §4, §5, §6
# [5] = test system: HCMV AD169 mutant rAIC246-3 (UL56 C325Y); experiment: CPE-RA, letermovir-selected mutant; conditions: for EC50: Human betaherpesvirus 5, AD169, rAIC246-3 (UL56 C325Y), CPE reduction assay, mean ± SD
# Description: as §4, §5, §6
SMILES,"EC50 ([1]; RV-HG (wt-HCMV), fluorescence reduction assay, mean ± SD, read-out: EC50) [nM]",sensitivity of the RV-HG-UL56 mutants compared with the parental wild-type virus RV-HG [2],EC50 [3] [nM],Resistance index (RI) = letermovir-EC50 mutant virus/letermovir-EC50 wild-type virus ([3]; rAIC246-9 vs AD169),EC50 [4] [nM],Resistance index (RI) = letermovir-EC50 mutant virus/letermovir-EC50 wild-type virus ([4]; rAIC246-1 vs AD169),EC50 [5] [nM],Resistance index (RI) = letermovir-EC50 mutant virus/letermovir-EC50 wild-type virus ([5]; rAIC246-3 vs AD169),EC50 [1] [nM]
"COc1cccc(N2CCN(C3=Nc4c(F)cccc4[C@H](CC(=O)O)N3c3cc(C(F)(F)F)ccc3OC)CC2)c1 [Letermovir, (S)-{8-fluoro-2-[4-(3-methoxyphenyl)-1-piperazinyl]-3-[2-methoxy-5-(trifluoromethyl)phenyl]-3,4-dihydro-4-quinazolinyl}acetic acid]",3 ± 1.2,resistant,60 ± 40,11,1240 ± 360,221,27000 ± 3270,4801,–
Nc1nc(O)c2ncn(COC(CO)CO)c2n1 [Ganciclovir],–,did not differ,1700 ± 200,–,1200 ± 200,–,2400 ± 2500,–,2210 ± 990
